The values that follow come from patent publication US7169759B1, “Tetrapeptide inhibitors of β-secretase” (Elan Pharmaceuticals, Inc., priority 1999, dated 2007).

*1 amine or outer side, *2 acyl side, *3 side chain or, on linkers, in order; H or OH if unused. Where a SMILES comes first, the peptide text is derived from it. [ ]: non-standard residue; d: D form. The star is where a group is joined. Sta = CC(C)C[C@H](N)[C@@H](O)CC(=O)O; X1 = CC(C)CC(N[*:1])C(O)CC(=O)[*:2]; Phg = N[CH](C(=O)O)c1ccccc1; Isovaleryl = CC(C)CC(=O)*; Boc = CC(C)(C)OC(=O)*

Chain of β-secretase (P56817 46-501): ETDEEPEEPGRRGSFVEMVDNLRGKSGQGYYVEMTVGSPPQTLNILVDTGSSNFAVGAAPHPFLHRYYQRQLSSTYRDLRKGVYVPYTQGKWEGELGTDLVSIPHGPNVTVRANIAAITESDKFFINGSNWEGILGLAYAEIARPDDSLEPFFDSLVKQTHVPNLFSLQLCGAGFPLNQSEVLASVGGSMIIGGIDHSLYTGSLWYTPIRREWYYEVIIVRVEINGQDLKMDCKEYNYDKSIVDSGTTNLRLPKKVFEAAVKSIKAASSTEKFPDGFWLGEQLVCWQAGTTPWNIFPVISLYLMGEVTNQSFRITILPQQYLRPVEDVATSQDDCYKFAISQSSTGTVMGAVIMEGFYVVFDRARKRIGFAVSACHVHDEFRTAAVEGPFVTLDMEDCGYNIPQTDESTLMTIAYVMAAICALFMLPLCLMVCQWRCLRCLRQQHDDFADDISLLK

The target in one assay is T1, Human brain β-Secretase (Homo sapiens, UniProt P56817).
T1 construct: Human brain β-Secretase from the concentrated HiQ pool prepared Jul; from tissue; host or cells: human brain
T1 sequence (P56817 46-501): as above
Briefly: MBP-C125 enzyme inhibition assay (ELISA detection of β-secretase cleavage of MBP-C125 substrate). It is filed as biochemical. The conditions noted are these: pH 4.5, 37° C., 90 minutes, highest concentration 200 μM, read-out: IC50 Group. How it is done: Enzyme Inhibition Assay Purpose/Rationale:
The MBP-C125 assay, determines relative inhibition of β-secretase cleavage of an MPB-C125 substrate by the compounds assayed. Human brain β-Secretase from the concentrated HiQ pool prepared Jul. 16, 1997 in 0.20% Triton is used in the assay. Inhibition data was obtained from an ELISA which uses an anti-MBP capture antibody (on precoated and blocked 96-well high binding plates) followed by incubation with diluted enzyme reaction supernatant, incubation with an anti-SW192 specific biotinylated reporter antibody and incubation with streptavidin/alkaline phosphatase. Detection was effected by a fluorescent substrate signal on cleavage by the phosphatase. The ELISA only detected cleavage following Leu 596 at the substrate's Swedish APP 751 mutation site.
Compounds were diluted in a 1:1 dilution series to a six-point concentration curve (two wells per concentration) which took up one 96-plate row per compound tested.
Each of the test compounds was weighed out into a vial and DMSO was added to make up a 10 mM solution. To obtain a final compound concentration of 200 μM at the high point of a 6-point dilution curve, 100 μL of the 10 mM solution was added to well C1 of a 96-well V-bottom plate. Fifty μL of DMSO was added to odd wells of row C across the plate and 1:1 serial dilutions were made. 10 μL of each dilution was added to each of two wells on row C of a corresponding V-bottom plate to which 190 μL of 52 mM NaOAc/7.9% DMSO, pH 4.5 were pre-added. The NaOAc diluted compound plate was spun down to pellet precipitant and 20 μL/well was transferred to a corresponding flat-bottom plate to which 30 μL of ice-cold enzyme-substrate mixture (2.5 μL MBP-C125 substrate, 0.03 μL enzyme and 24.5 ice cold 0.09% TX100 per 30 μl) was added. The compound concentration in the final enzyme reaction was thus 50 times less than the starting concentration. The final reaction mixture of 200 μM compound for the highest curve point was in 5% DMSO, 20 mM NaAc, 0.06% TX100, at pH 4.5. The enzyme reaction was started by warming the plates to 37° C. After 90 minutes at 37° C., 200 μL/well cold specimen diluent was added to stop the reaction and 20 μL/well was transferred to a corresponding α-MBP coated ELISA plate, containing 80 μL/well specimen diluent. This reaction was incubated overnight at 4° C. and the ELISA was developed the next day using a 2 hr. incubation with α-192SW followed by Streptavidin-AP conjugate and flourescent substrate. The signal was read on a fluorescent plate reader.
On the technique in general: ELISA stands for enzyme-linked immunosorbent assay.
Take `CSCCC(NC(=O)C(NC(=O)OC(C)(C)C)C(C)C)C(=O)NC(CC(C)C)C(O)CC(=O)NC(C(=O)NC(C)c1ccc(C(=O)O)cc1)C(C)C` (centres unmarked) [Example 31]: the IC50 was in the range of 10 to 99 µM.

For the compound `CC(C)CC(NC(=O)C(NC(=O)C(NC(=O)OC(C)(C)C)C(C)C)c1ccccc1)C(O)CC(=O)NC(C(=O)NCc1ccc(C(=O)O)cc1)C(C)C` (centres unmarked) [Example 39], the IC50 lay within 10 to 99 µM.

With `CSCCC(NC(=O)C(NC(=O)OC(C)(C)C)C(C)C)C(=O)NC(CC(C)C)C(O)CC(=O)NC(C(=O)NC(C(=O)O)c1ccccc1)C(C)C` (centres unmarked) [Example 35] (Boc-VM[X1]V[Phg]-OH; configuration not given here), the IC50 lay in the range of 10 to 99 µM.

On to `CSCCC(NC(=O)C(NC(=O)OC(C)(C)C)C(C)C)C(=O)NC(CC(C)C)C(O)CC(=O)NC(C(=O)NCCc1ccc(O)c([N+](=O)[O-])c1)C(C)C` (centres unmarked) [Example 36], for which the IC50 was under 10 µM.

On to `CSCCC(NC(=O)C(NC(=O)OC(C)(C)C)C(C)C)C(=O)NC(CC(C)C)C(O)CC(=O)NC(C(=O)NC1CCC(C(=O)O)C(C(=O)O)C1)C(C)C` (centres unmarked) [Example 32], for which the IC50 is under 10 µM.

Regarding `CC(=O)NC(C(=O)NC(C(=O)NC(Cc1ccccc1)C(O)CC(=O)NC(C(=O)NCc1ccc(C(=O)O)cc1)C(C)C)c1ccccc1)C(C)C` (centres unmarked) [Example 37], the IC50 is under 10 µM.

`CC(C)CC(NC(=O)C(NC(=O)C(NC(=O)OCc1ccccc1)C(C)C)c1ccccc1)C(O)CC(=O)NC(C(=O)NCc1ccc(C(=O)O)cc1)C(C)C` (centres unmarked) [Example 38]: the IC50 lay in the range of 10 to 99 µM.

Another assay concerns the target β-secretase (Homo sapiens, UniProt P56817). Briefly: assays with β-secretase (pepstatin remark). It is filed as biochemical.
Settings: not given
With `CC(C)CC(=O)N[C@H](C(=O)N[C@H](C(=O)N[C@@H](CC(C)C)[C@@H](O)CC(=O)N[C@@H](C)C(=O)N[C@@H](CC(C)C)[C@@H](O)CC(=O)O)C(C)C)C(C)C` [pepstatin] (Isovaleryl-VV[Sta]A[Sta]-OH), the “inhibitory activity in assays with β-secretase” value is “no inhibitory activity”.

For orientation: IC50 means the concentration needed to halve the response being measured.
